Experimental findings from patent US20080051451A1, “Autoimmune conditions and NADPH oxidase defects” (priority 2006, published 2008) are described below.

In series [1] the test system is NADPH oxidase. The series can be described thus: Oxidative burst response to PMA in spleen granulocytes after s.c. injection in vivo. Also noted: species or system Rat (Rattus norvegicus). Particulars: spleen granulocytes 5 days after s.c. injection (200 μl) in DA.Ncf1^DA rats, PMA stimulation, compared to naive DA.Ncf1^DA and DA.Ncf1^E3. The procedure: The term DA.Ncf1^DA rats designates DA rats carrying the Ncf1 DA allele with impaired NADPH oxidase capacity and the term DA.Ncf1^E3 rats designates DA rats carrying the Ncf1^E3 allele with functional NADPH oxidase capacity (Olofsson & Holmdahl (2003) Scand J Immunol 58:155-164).
Oxidative burst response to PMA stimulation in vitro in spleen granulocytes taken 5 days after s.c. phytol injection in DA.Ncf1^DA rats (200 μl) compared to naive DA.Ncf1^DA and DA.Ncf1^E3 (n=5) (FIG. 3).

The test system of series [2] is DA.Ncf1^DA rats. Briefly: Pristane induced arthritis (PIA) in DA.Ncf1^DA rats. Format: in vivo, Rat (Rattus norvegicus). How it is done: Treatments with compound 1 (phytol) or compound 5 (phytyl acetate) were administered to DA.Ncf1^DA rats as 100 μl subcutaneous injections in the neck at day 8 and 10 after arthritis induction (untreated control (◯), compound 1 (phytol) (♦) and compound 5 (phytyl acetate) (▴)) (FIG. 9).
Treatments with compound 2 (farnesol) or compound 4 (farnesylacetate) were administered to DA.Ncf1^DA rats as 100 μl subcutaneous injections in the neck at day 8 and 10 after arthritis induction, (untreated control (◯), compound 2 (farnesol) (▪) and compound 4 (farnesylacetate) (▴)) (FIG. 11).
Treatments with compound 1 (phytol), compound 6 (di-hydro-phytol, compound 5 (phytyl acetate), or compound 7 (di-hydro-phytyl acetate were administered to DA.Ncf1^DA rats as 100 μl subcutaneous injections in the neck at day 8 and 10 after arthritis induction, (untreated control (◯), compound 1 (phytol) (♦), compound 6 (di-hydro-phytol (▪), compound 5 (phytyl acetate) (▴) or compound 7 (di-hydro-phytyl acetate (●)) (FIG. 12).
Treatments of DA.Ncf1^DA rats with compound 1 (phytol) mixed in the food for continuous uptake compared with Omega3 fatty acids, (untreated control (◯), Omega3 fatty acid (□), phytol 1% daily (♦), phytol 1% every 2'nd day (▴), or phytol 1% initiated day 7 after arthritis induction (▪)) (FIG. 13).
Treatments of DA.Ncf1^DA rats with compound 5 (phytyl acetate) mixed in the food for daily uptake, (untreated control (◯), compound 1 (phytol) 1% daily (♦), or compound 5 (phytyl acetate) 1% daily (▴)) (FIG. 14).
Treatments with compound 1 (phytol) at 1.6 or 2.3 g/kg/day administered to DA.Ncf1^DA rats by oral gavage given by dosing every second day with compound 1 (phytol) […] (♦), compound 1 (phytol) […] (▴) or untreated control (◯).
Treatments of DA.Ncf1^DA rats with compound 1 (phytol) or compound 9 (isophytol) mixed in the food for continuous uptake compared with fenofibrate, (compound 1 (phytol) 500 mg/kg/day (♦), compound 9 (isophytol) 500 mg/kg/day (▴), or fenofibrate 100 mg/kg/day (□). Untreated control (◯).) (see FIG. 17).

The test system of series [3] is DA.Ncf1^DA rats. The series can be described thus: Collagen induced arthritis (CIA) with oil adjuvant. Format: in vivo, Rat (Rattus norvegicus). How it is done:
Collagen induced arthritis (CIA) was induced by an s.c. injection of 100 μl of rat collagen type II (CII; 100 μg/rat-150 μg/rat), emulsified in incomplete Freund's adjuvant (IFA; Sigma Aldrich) (FIG. 7).
Effect of s.c. administration of phytol (200 μl) 5 days.
At day 27 after immunization, sera were taken and analyzed for anti-CII IgG levels (n=7). Titers are relative to pooled positive sera (units).

The test system of series [4] is DA.Ncf1^DA rats. Briefly: Non oil collagen induced arthritis (NOCIA). The series is classed as in vivo, Rat (Rattus norvegicus). How it is done: Non oil collagen induced arthritis (NOCIA) was induced by emulsifying rat CII (300 μg) in a mixture of LPS (50 μg; Sigma Aldrich), CPG (5′-TCCATGACGTTCCTGACGTT-3′; SEQ ID NO:1) (45 μg; MWG-Biotech AG, Ebersberg, Germany) and alum (6 mg; Sigma Aldrich) and injected s.c. in a total volume of 300 μl.
Preventive effect on arthritis of phytol injection (200 μl s.c.) five days prior to induction of NOCIA in DA.Ncf1^DA rats, (control (Δ) and compound 1 (phytol) (▴)).
Delayed type hypersensitivity (DTH) response is abrogated after compound 1 (phytol) injection (FIG. 8B). Day 67 after NOCIA immunization the immune system was challenged by an injection of CII in the ear. Following increase in ear volume was measured and compared to control ear (control n=7 and compound 1 (phytol) n=8).

Series [5] relates to DA.Ncf1^DA rats. Briefly: Experimental allergic encephalomyelitis (EAE) in vivo. Further details: species or system Rat (Rattus norvegicus). The note with it: 200 μL injected at the base of the tail at day 0; scored 40 days; p<0.01 vs untreated control. How it is done:
At day 0, all rats were treated (immunized) with 200 μL SCH (DA.Ncf1^DA spinal cord homogenate, to induce EAE) i.d. at the base of the tail. The rats were then scored according to the following scale for 40 days: • 0=Normal • 1=Tail weakness • 2=Tail paralysis • 3=Tail paralysis and mild […] • 4=Tail paralysis and severe […] • 5=Tail paralysis and paralysis of one limb • 6=Tail paralysis and paralysis of a pair of limbs • 7=Tetra-paresis • 8=Pre-morbid or dead. […] EAE began to appear around day 6.

Series [6] is described as follows: Arthritogenicity / arthritis effect (general statement). The note with it: general statement in Example 3. The series is classed as in vivo.
Series [7] deals with DA.Ncf1^DA rats. Briefly: Pristane induced arthritis (PIA) in DA.Ncf1^DA rats. The series is classed as in vivo, Rat (Rattus norvegicus). This is another data set of the same source.
Series [8] deals with Lewis.IF rat. Briefly: Pristane induced arthritis (PIA) in Lewis.IF rats. Particulars: 200 μl s.c. 5 days before induction of PIA.
Method: Disease was induced in all rats at the age of 6-12 weeks. Arthritis development was monitored with a macroscopic scoring system of the four limbs ranging from 0 to 15 (1 point for each swollen or red toe, 1 point for midfoot digit or knuckle, 5 points for a swollen ankle). The scores of the four paws were added yielding a maximum total score of 60 for each rat.
Therapeutic treatments were administered s.c. or intra peritoneal (i.p.; 200 μl) after onset of disease in the acute or chronic phase (FIG. 6).
The test system of series [9] is HL-60 cells. The series can be described thus: Oxidative burst assay of granulocytes in vitro (isoluminol, extra-cellular ROS). The note with it: HL-60 differentiated to granulocytes, 50 minutes, 37° C.
Method: The human myeloma cell line HL-60 (ATCC, CCI-240) was cultured in D-MEM (Gibco, Paisley, UK) complemented with 10% fetal calf serum and Penicillin-Streptomycin. […] Before assaying the cells were washed and resuspended in PBS to a concentration of 10^7 cells/ml.
Briefly, 5 μl of resuspended oils were added into 96-well plates containing 5×10^5 cells/well in a total volume of 200 μl PBS/well (final concentration isoluminol 50 μg/ml; Sigma Aldrich) and horse radish peroxidase (type II 2,5 U/ml; Sigma Aldrich). Samples were gently mixed and the data collection was initiated immediately. Extra-cellular ROS production was followed at 37° C. as produced luminescence signal (FluoStar Optima, BMG Labtechnologies, Offenburg, Germany) and presented as maximal relative signal during a measurement period of 50 minutes.
The cells were differentiated to granulocytes by culture in presence of 1,25% dimethylsulfoxide (DMSO; Sigma Aldrich Inc., Milwaukee, Wis.) for six days.

Structures are written as SMILES.

As to `C/C(=C\CO)CCCC(C)CCCC(C)CCCC(C)C` (stereo not drawn) [compound 1, 3,7,11,15-Tetramethyl-2-hexadecen-1-ol], the “Oxidative burst / NADPH oxidase capacity in vivo” value in [1] is reported as “restores to NADPH oxidase capacity to a level comparable to the level of NADPH oxidase capacity in rats with a functional oxidative burst”; in series [1] (listed as Phytol), “restores the oxidative burst defect in vivo”. For the same compound, the “severity of PIA, therapeutic effect” value in series [2] (100 μl subcutaneous injections in the neck at day 8 and 10 after arthritis induction) is on record as “therapeutic effects”. In addition, in series [2] (mixed in the food for continuous uptake, 500 mg/kg/day), the “severity of PIA, oral administration in food 500 mg/kg/day” value is “reduced the severity of arthritis”. Moreover, the “severity of PIA, oral administration in food 1% daily” value in series [2] (mixed in the food for daily uptake, 1% daily) is “reducing the severity of arthritis”. Moreover, the “adverse effect of the high doses (macroscopic observation, postmortem dissection)” value in series [2] (oral gavage every second day, both doses) is “No adverse effect”. Further, the “severity of PIA, oral administration in food, three regimes” value in series [2] (phytol 1% daily, 1% every 2'nd day, or 1% initiated day 7 after arthritis induction) is listed as “reduced the severity of arthritis”. Further, in series [3] (day 27 after immunization), the “anti-CII antibody (IgG) levels in serum” value is reported as “decreases anti-CII antibody levels in serum”. For the same compound, the “severity of collagen-induced arthritis” value in [3] (s.c. administration (200 μl) 5 days before immunization with CII) is “prevents collagen-induced arthritis”. The “arthritis severity in NOCIA” value in series [4] (200 μl s.c. five days prior to induction) is recorded as “reduces arthritis severity”. In addition, the “Delayed type hypersensitivity (DTH) response (increase in ear volume)” value in series [4] (CII challenge in the ear day 67 after NOCIA immunization) was “abrogated”. The “severity of inflammatory and paralyzing symptoms of EAE (score 0-8)” value in series [5] is “significant difference in severity of inflammatory and paralyzing symptoms of EAE”. Besides, the arthritis ameliorating effects result in series [6] is reported as “arthritis ameliorating effects”. Moreover, in series [6], the arthritogenicity result was “non arthritogenic”. In addition, the “severity of PIA, oral gavage” value in series [7] (both doses, every second day (1.6 and 3.2 mg/kg as printed elsewhere in the source)) is “potent arthritis ameliorating effect”. Besides, the “severity of arthritis, chronic phase of PIA” value in series [7] (injected i.p. twice (200 μl) starting day 70, three days between treatments) is “decreases arthritis severity in the chronic phase of arthritis”. In addition, in series [7] (injected s.c. day -5 prior to pristane injection), the “severity of PIA (arthritis score), preventive” value is listed as “inhibits development of arthritis”. In addition, the “cartilage destruction (serum COMP levels)” value in [7] (sera taken day 38, treatment from day 22) is given as “Cartilage destruction is decreased”. Also, the “severity of arthritis, acute phase of established PIA” value in [7] (two injections (200 μl, s.c. or i.p.) with 5 days in between starting day 22) is on record as “ameliorates disease in the acute phase of arthritis”. Further, in series [8], the “severity of PIA, preventive, Lewis.IF rat” value was “arthritis preventing effect”. In addition, in [9], the “Extra-cellular ROS production (maximal relative luminescence signal)” value was “strong ROS production”.
